Data: PubChem BioAssay AID1963828 (Molecular Pharmacology Branch, DTP, NCI, 2024)

System: 991263-137-R1-J2-PDC complex spheroid viability
Experiment: Anticancer human tumor 991263-137-R1-J2-PDC patient-derived colon adenocarcinoma cell line growth inhibition [POLQ]
Conditions: for IC50: curve of first compound; for viability, T/C: stronger effect = lower value
How it was run: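 PDC + HUVEC + MSC complex spheroids; POLQ inhibitors ± partner drugs; top conc. at/near clinical Cmax, else 10 microM (SN-38 1 microM), half-log dilutions; 37 degrees C, 5% CO2.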

[1] = second compound 0.0316 µM, first compound 0.0316 µM
[2] = second compound 0.0316 µM, first compound 0.1 µM
[3] = second compound 0.0316 µM, first compound 0.316 µM
[4] = second compound 0.0316 µM, first compound 1 µM
[5] = second compound 0.0316 µM, first compound 3.16 µM
[6] = second compound 0.0316 µM, first compound 10 µM
[7] = second compound 0.1 µM, first compound 0.0316 µM
[8] = second compound 0.1 µM, first compound 0.1 µM
[9] = second compound 0.1 µM, first compound 0.316 µM
[10] = second compound 0.1 µM, first compound 1 µM
[11] = second compound 0.1 µM, first compound 3.16 µM
[12] = second compound 0.1 µM, first compound 10 µM
[13] = second compound 0.316 µM, first compound 0.0316 µM
[14] = second compound 0.316 µM, first compound 0.1 µM
[15] = second compound 0.316 µM, first compound 0.316 µM
[16] = second compound 0.316 µM, first compound 1 µM
[17] = second compound 0.316 µM, first compound 3.16 µM
[18] = second compound 0.316 µM, first compound 10 µM
[19] = second compound 1 µM, first compound 0.0316 µM
[20] = second compound 1 µM, first compound 0.1 µM
[21] = second compound 1 µM, first compound 0.316 µM
[22] = second compound 1 µM, first compound 1 µM
[23] = second compound 1 µM, first compound 3.16 µM
[24] = second compound 1 µM, first compound 10 µM
[25] = second compound 3.16 µM, first compound 0.0316 µM
[26] = second compound 3.16 µM, first compound 0.1 µM
[27] = second compound 3.16 µM, first compound 0.316 µM
[28] = second compound 3.16 µM, first compound 1 µM
[29] = second compound 3.16 µM, first compound 3.16 µM
[30] = second compound 3.16 µM, first compound 10 µM
[31] = second compound 10 µM, first compound 0.0316 µM
[32] = second compound 10 µM, first compound 0.1 µM
[33] = second compound 10 µM, first compound 0.316 µM
[34] = second compound 10 µM, first compound 1 µM
[35] = second compound 10 µM, first compound 3.16 µM
[36] = second compound 10 µM, first compound 10 µM
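Further: spheroids exposed to compounds for 7 days before readout.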
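Wherever viability, T/C is given: 100% = DMSO vehicle control viability.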

Nc1ccn(C2OC(CO)C(O)C2(F)F)c(=O)n1 (centres undefined) + Cc1cccc(N(C)C(=O)C2C(O)CCN2c2nc(C)cc(C(F)(F)F)c2C#N)c1 gave an IC50 (second compound 0.0316 µM) of 873 nM, an IC50 (second compound 0.1 µM) of 1310 nM and an IC50 (second compound 0.316 µM) of 1150 nM. For the same molecule, the IC50 (second compound 1 µM) was 1910 nM, the IC50 (second compound 3.16 µM) was 3040 nM and the IC50 (second compound 10 µM) was 2030 nM. For the same molecule, the viability, T/C [1] was 85.6%, the viability, T/C [2] was 74.6% and the viability, T/C [3] was 57.2%. It also gave a viability, T/C [4] of 48%, a viability, T/C [5] of 52.4% and a viability, T/C [6] of 42.4%. For the same molecule, the viability, T/C [7] was 99.4%, the viability, T/C [8] was 66.4% and the viability, T/C [9] was 60.6%. The viability, T/C [10] was 62.4%, the viability, T/C [11] was 40.3% and the viability, T/C [12] was 41.5%. It also gave a viability, T/C [13] of 82.6%, a viability, T/C [14] of 70.5% and a viability, T/C [15] of 54.9%. It also gave a viability, T/C [16] of 52.6%, a viability, T/C [17] of 48.4% and a viability, T/C [18] of 38.5%. For the same molecule, the viability, T/C [19] was 75.6%, the viability, T/C [20] was 63.8% and the viability, T/C [21] was 53.1%. The viability, T/C [22] was 50%, the viability, T/C [23] was 53.6% and the viability, T/C [24] was 46%. It also gave a viability, T/C [25] of 69.2%, a viability, T/C [26] of 64.2% and a viability, T/C [27] of 54.7%. The viability, T/C [28] was 54%, the viability, T/C [29] was 53.2% and the viability, T/C [30] was 45%. It also gave a viability, T/C [31] of 80.2%, a viability, T/C [32] of 70.3% and a viability, T/C [33] of 63.5%. The viability, T/C [34] was 49.6%, the viability, T/C [35] was 51.8% and the viability, T/C [36] was 41.5%.

For O=C(c1cc(Cc2n[nH]c(=O)c3ccccc23)ccc1F)N1CCN(C(=O)C2CC2)CC1 + Cc1cccc(N(C)C(=O)C2C(O)CCN2c2nc(C)cc(C(F)(F)F)c2C#N)c1, the IC50 (second compound 0.0316 µM) was > 10000 nM, the IC50 (second compound 0.1 µM) was > 10000 nM and the IC50 (second compound 0.316 µM) was > 10000 nM. For the same molecule, the IC50 (second compound 1 µM) was > 10000 nM, the IC50 (second compound 3.16 µM) was > 10000 nM and the IC50 (second compound 10 µM) was > 10000 nM. For the same molecule, the viability, T/C [1] was 105%, the viability, T/C [2] was 99.1% and the viability, T/C [3] was 92.4%. For the same molecule, the viability, T/C [4] was 105%, the viability, T/C [5] was 79.5% and the viability, T/C [6] was 79.3%. The viability, T/C [7] was 101%, the viability, T/C [8] was 104% and the viability, T/C [9] was 93.2%. It also gave a viability, T/C [10] of 84.4%, a viability, T/C [11] of 87.1% and a viability, T/C [12] of 99%. It also gave a viability, T/C [13] of 92.5%, a viability, T/C [14] of 118% and a viability, T/C [15] of 96%. The viability, T/C [16] was 99.3%, the viability, T/C [17] was 90% and the viability, T/C [18] was 72%. The viability, T/C [19] was 90.2%, the viability, T/C [20] was 91.3% and the viability, T/C [21] was 91.5%. For the same molecule, the viability, T/C [22] was 111%, the viability, T/C [23] was 107% and the viability, T/C [24] was 91.4%. The viability, T/C [25] was 80.8%, the viability, T/C [26] was 95.3% and the viability, T/C [27] was 92.8%. For the same molecule, the viability, T/C [28] was 80.4%, the viability, T/C [29] was 108% and the viability, T/C [30] was 95.8%. For the same molecule, the viability, T/C [31] was 96.5%, the viability, T/C [32] was 101% and the viability, T/C [33] was 86.1%. The viability, T/C [34] was 100%, the viability, T/C [35] was 106% and the viability, T/C [36] was 90.4%.
